Results on three compounds are retold here after patent US9730450B2, “Use of isosorbide monoesters as antimicrobial active substances” (CLARIANT INTERNATIONAL LTD., priority 2011, dated 2017).

In brackets after ≈: the same amount, converted by molar mass. Like-named read-outs stand apart in the source and are kept apart here.

The subject of one experiment is Candida albicans. Briefly: MIC agar dilution test, yeasts. The experiment is classed as cell-based. Conditions: Candida albicans (Y); Sabouraud 4% dextrose agar buffered to pH 5.6; corrected for dilution effect of butyl polyglycol; read-out: Minimum inhibitory concentration (MIC). As for the experimental part:
(§1) Below, the antimicrobial efficacy of isosorbide caprylate 1 in butyl polyglycol against bacteria, fungi and yeasts is examined. For the tests with bacteria, isosorbide caprylate 1 was diluted with butyl polyglycol and then, at 50° C., added to liquid CASO agar (casein-peptone agar) buffered to pH 7 (+1-0.2) in various concentrations (hereinbelow referred to as compositions B1, B2, etc.). For the tests with fungi and yeasts, isosorbide caprylate 1 was diluted with butyl polyglycol and then added to liquid Sabouraud 4% dextrose agar buffered to pH 5.6 (+1-0.2) in various concentrations (hereinbelow referred to as compositions PH1, PH2, etc.). The compositions B1, B2, etc. and PH1, PH2 etc. were each poured into Petri dishes and each inoculated with identical amounts of bacteria, fungi and yeasts. The minimum inhibitory concentration (MIC) is the concentration at which inhibition of the growth of the bacteria, fungi and yeasts in the compositions B1, B2, etc. and PH1, PH2, etc. occurs.
(§2) Analogously to the determination of the antimicrobial activity of isosorbide caprylate 1, the antimicrobial activity firstly of a mixture comprising 89.6% by weight of isosorbide dicaprylate and 9.4% by weight of isosorbide monocaprylate (remainder: 1% by weight) (hereinbelow referred to as “isosorbide dicaprylate”) and, secondly, pure isosorbide was determined in further test series.
On the technique in general: Agar dilution tests growth on a series of plates holding different concentrations.

A further experiment has as its system Pseudomonas oleovorans. Briefly: MIC agar dilution test, bacteria. Format: cell-based. The settings on record: Ectopseudomonas oleovorans; Pseudomonas oleovorans (B); CASO agar buffered to pH 7; corrected for dilution effect of butyl polyglycol; read-out: Minimum inhibitory concentration (MIC). As for the experimental part: as §1, §2
The test system of the next experiment is Citrobacter freundii. Briefly: MIC agar dilution test, bacteria. The experiment is classed as cell-based. The settings on record: Citrobacter freundii (B); CASO agar buffered to pH 7; corrected for dilution effect of butyl polyglycol; read-out: Minimum inhibitory concentration (MIC). As for the experimental part: as §1, §2
The subject of another experiment is Klebsiella pneumoniae. Briefly: MIC agar dilution test, bacteria. Format: cell-based. The settings on record: Klebsiella pneumoniae (B); CASO agar buffered to pH 7; corrected for dilution effect of butyl polyglycol; read-out: Minimum inhibitory concentration (MIC). As for the experimental part:
as §1, §2

In another experiment the test system is Escherichia coli. Kind of experiment: MIC agar dilution test, bacteria. Format: cell-based. The settings on record: Escherichia coli (B); CASO agar buffered to pH 7; corrected for dilution effect of butyl polyglycol; read-out: Minimum inhibitory concentration (MIC). As for the experimental part: as §1, §2
The subject of the next experiment is Enterobacter aerogenes. Briefly: MIC agar dilution test, bacteria. Format: cell-based. Conditions: Klebsiella aerogenes; Enterobacter aerogenes (B); CASO agar buffered to pH 7; corrected for dilution effect of butyl polyglycol; read-out: Minimum inhibitory concentration (MIC). As for the experimental part:
as §1, §2

Another experiment relates to Pseudomonas aeruginosa. Kind of experiment: MIC agar dilution test, bacteria. The experiment is classed as cell-based. Conditions: Pseudomonas aeruginosa (B); CASO agar buffered to pH 7; corrected for dilution effect of butyl polyglycol; read-out: Minimum inhibitory concentration (MIC). As for the experimental part:
as §1, §2

The test system of another experiment is Staphylococcus aureus. Briefly: MIC agar dilution test, bacteria. The experiment is classed as cell-based. The settings on record: Staphylococcus aureus (B); CASO agar buffered to pH 7; corrected for dilution effect of butyl polyglycol; read-out: Minimum inhibitory concentration (MIC). As for the experimental part:
as §1, §2

A further experiment has as its system Proteus vulgaris. Kind of experiment: MIC agar dilution test, bacteria. The settings on record: Proteus vulgaris (B); CASO agar buffered to pH 7; corrected for dilution effect of butyl polyglycol; read-out: Minimum inhibitory concentration (MIC). The experiment is classed as cell-based. As for the experimental part:
as §1, §2

Experiment [1] deals with bacteria, fungi and yeasts. Kind of experiment: Antimicrobial efficacy, overall statement. The experiment is classed as cell-based. As for the experimental part: as §1, §2
Another experiment deals with Penicillium funicolosium. Briefly: MIC agar dilution test, fungi. Format: cell-based. The settings on record: Penicillium funicolosium (F); Sabouraud 4% dextrose agar buffered to pH 5.6; corrected for dilution effect of butyl polyglycol; read-out: Minimum inhibitory concentration (MIC). As for the experimental part:
as §1, §2

In the next experiment the test system is Penicillium minioluteum. Briefly: MIC agar dilution test, fungi. The experiment is classed as cell-based. Conditions: Talaromyces minioluteus; Penicillium minioluteum (F); Sabouraud 4% dextrose agar buffered to pH 5.6; corrected for dilution effect of butyl polyglycol; read-out: Minimum inhibitory concentration (MIC). As for the experimental part: as §1, §2

The subject of a further experiment is Fusarium solani. Briefly: MIC agar dilution test, fungi. The experiment is classed as cell-based. The settings on record: Fusarium solani (F); Sabouraud 4% dextrose agar buffered to pH 5.6; corrected for dilution effect of butyl polyglycol; read-out: Minimum inhibitory concentration (MIC). As for the experimental part: as §1, §2
In the next experiment the test system is Aspergillus brasiliensis. Briefly: MIC agar dilution test, fungi. Format: cell-based. Conditions: Aspergillus brasiliensis (F); Sabouraud 4% dextrose agar buffered to pH 5.6; corrected for dilution effect of butyl polyglycol; read-out: Minimum inhibitory concentration (MIC). As for the experimental part: as §1, §2
Another experiment concerns Aspergillus terreus. Briefly: MIC agar dilution test, fungi. The experiment is classed as cell-based. Conditions: Aspergillus terreus (F); Sabouraud 4% dextrose agar buffered to pH 5.6; corrected for dilution effect of butyl polyglycol; read-out: Minimum inhibitory concentration (MIC). As for the experimental part:
as §1, §2

For experiment [2], the system named is bacteria, fungi and yeasts. The settings on record: general statement, no test described, cited from earlier work.

Turning to `O[C@@H]1CO[C@H]2[C@@H]1OC[C@@H]2O` [isosorbide], the MIC in the experiment on Candida albicans, in the experiment with Pseudomonas oleovorans, with Citrobacter freundii, in the experiment with Klebsiella pneumoniae, in the experiment with Escherichia coli and in the experiment on Enterobacter aerogenes was 10000 µg/mL (≈ 68.4 mM) throughout. Further, the MIC in the experiment on Pseudomonas aeruginosa, in the experiment with Staphylococcus aureus, in the experiment on Proteus vulgaris, in the experiment with Penicillium funicolosium, in the experiment on Penicillium minioluteum and in the experiment with Fusarium solani was 10000 µg/mL (≈ 68.4 mM) in each case. For the same compound, the MIC with Aspergillus brasiliensis and in the experiment on Aspergillus terreus was 10000 µg/mL (≈ 68.4 mM) in each case. For the same compound, the “antimicrobial activity (in words)” value in experiment [1] (summary of MIC results of Tables 1 and 2) is listed as “neither isosorbide nor isosorbide dicaprylate is antimicrobially active”.
Consider `CCCCCCCC(=O)O` [caprylic acid], for which the “antimicrobial activity (in words)” value is recorded as “no antimicrobial activity” in experiment [2] (at a pH of 6 or above) and “antimicrobially effective” in experiment [2].
As to isosorbide monocaprylate, in experiment [1] (concluded from activity of isosorbide caprylate 1 and inactivity of its other constituents, in particular as fungicide against fungi and yeasts), the “antimicrobial activity (in words)” value is listed as “significant antimicrobial activity”.
